Publication PMC6150413 (Molecules : A Journal of Synthetic Chemistry and Natural …, 2017)
Where two headings read alike, the source gives them in different places. Peptide text beside a SMILES is read from it.

Key:
E. coli ATCC 25922 = system: E. coli ATCC 25922
Protocol: (§1) The antimicrobial activities of VIP and its analogues were tested against S. aureus ATCC 25923 and E. coli ATCC 25922 according to the method reported by Wani et al. with slight modification. The final peptide concentrations ranged from 0.5 to 256 μM. The tests were performed in triplicate using 4 replicates for each experiment. In addition, S. aureus ATCC 25923 and E. coli ATCC 25922 (2 × 10^6 CFU/mL) were treated with natural VIP and VIP8 at MIC for 2 h. […] The haemolytic activity of VIP and VIP derivatives were measured using porcine erythrocytes according to previous method. MTT (3-[4,5 dimethylthiozol-2-yl]-2,5-diphenyltetrazolium bromide) was used to determine the cytotoxicity of VIP and its analogue on porcine intestinal epithelial cells IPEC-J2. Stable experiments were conducted with reference to the literature with slightly changes. First, the pH of the mediums was adjusted to acidic (pH 4.0, pH 5.0, and pH 6.0) and basic (pH 8.0, pH 9.0, and pH 10.0) conditions. To investigate the effects of ion strength, the bacterial mediums were supplemented with different concentrations of NaCl (20 mM, 60 mM, and 180 mM) or MgCl2 (1 mM, 25 mM, and 50 mM). Then, bacteria were incubated with VIP, VIP analogues 2 and 8, respectively. After 3 h of incubation, bacterial viability was measured with a Synergy HT multimode reader (BioTek, Winooski, VT, USA) at 600 nm.
(§2) Both the agar diffusion test and modified broth microdilution method were used to evaluate the antimicrobial activity of recombinant expressed VIP8. For the Oxford cup agar diffusion, the sample was added to an Oxford cup, which was then placed on a Mueller-Hinton agar plate containing 1 × 10^5 colony-forming units of S. aureus […]. Chemically-synthesized VIP8 and ampicillin were used as the positive control. The minimal inhibition concentration was determined by the method reported by Wani et al..

S. aureus ATCC 25923 = system: S. aureus ATCC 25923
Protocol: as §1, §2

[1] = E. coli ATCC 25922, peptide 0.5 to 256 μM, triplicate, 4 replicates each, Table 2
[2] = S. aureus ATCC 25923, peptide 0.5 to 256 μM, triplicate, 4 replicates each, Table 2

Row | Structure (SMILES) | MIC (minimal inhibitory concentration) (E. coli ATCC 25922; ATCC 25922, 2 h) | MIC (minimum inhibitory concentration) (E. coli ATCC 25922; ATCC 25922, 2 h) | MIC (minimal inhibitory concentration) (S. aureus ATCC 25923; ATCC 25923, 2 h) | MIC (minimum inhibitory concentration) (S. aureus ATCC 25923; ATCC 25923, 2 h) | MBC (minimum bactericidal concentration) (E. coli ATCC 25922; ATCC 25922, 2 h) | MBC (minimum bactericidal concentration) (S. aureus ATCC 25923; ATCC 25923, 2 h) | MBC (minimum bactericidal concentration) (E. coli ATCC 25922; [1]) | MIC (minimum inhibitory concentration) (E. coli ATCC 25922; [1]) | MBC (minimum bactericidal concentration) (S. aureus ATCC 25923; [2]) | MIC (minimum inhibitory concentration) (S. aureus ATCC 25923; [2]) | Cytotoxicity (in words) (3T3-L1 cells)
1 | CC[C@H](C)[C@H](NC(=O)CNC(=O)[C@H](CCC(=O)O)NC(=O)[C@H](CO)NC(=O)[C@@H](NC(=O)[C@H](CCCNC(=N)N)NC(=O)[C@H](CCCCN)NC(=O)[C@H](CCCCN)NC(=O)[C@H](C)NC(=O)[C@H](CO)NC(=O)[C@H](CC(N)=O)NC(=O)[C@H](CCC(=O)O)NC(=O)[C@H](CC(C)C)NC(=O)[C@H](CCCCN)NC(=O)[C@H](CCCCN)NC(=O)[C@H](C)NC(=O)[C@@H](NC(=O)[C@H](CCCCN)NC(=O)[C@H](CO)NC(=O)[C@H](CC(C)C)NC(=O)[C@H](Cc1c[nH]c2ccccc12)NC(=O)[C@@H](N)CO)[C@@H](C)O)[C@@H](C)CC)C(=O)N[C@@H](C)C(=O)N[C@H](C(=O)N[C@@H](C)C(=O)N[C@H](C(=O)N[C@@H](CCC(N)=O)C(=O)NCC(=O)NCC(=O)N1CCC[C@H]1C(=O)N[C@@H](CCCNC(=N)N)C(=O)O)[C@@H](C)CC)[C@@H](C)CC [Cecropin P1, reference compound] (H-SWLSKTAKKLENSAKKRISEGIAIAIQGGPR-OH) | 2 µM | 2 µM | 8 µM | 8 µM | 4 µM | 8 µM | – | – | – | – | –
2 | CC[C@H](C)[C@H](NC(=O)[C@H](CO)NC(=O)[C@H](CC(N)=O)NC(=O)[C@H](CC(C)C)NC(=O)[C@H](CO)NC(=O)[C@H](CCCCN)NC(=O)[C@H](CCCCN)NC(=O)[C@@H](NC(=O)[C@H](C)NC(=O)[C@H](CCSC)NC(=O)[C@H](CCC(N)=O)NC(=O)[C@H](CCCCN)NC(=O)[C@H](CCCNC(=N)N)NC(=O)[C@H](CC(C)C)NC(=O)[C@H](CCCNC(=N)N)NC(=O)[C@@H](NC(=O)[C@H](CO)NC(=O)[C@H](CC(N)=O)NC(=O)[C@H](CC(=O)O)NC(=O)[C@@H](NC(=O)[C@H](Cc1ccccc1)NC(=O)[C@@H](NC(=O)[C@H](C)NC(=O)[C@H](CC(=O)O)NC(=O)[C@H](CO)NC(=O)[C@@H](N)Cc1c[nH]cn1)C(C)C)[C@@H](C)O)[C@@H](C)O)C(C)C)C(=O)N[C@@H](CC(C)C)C(=O)N[C@@H](CC(N)=O)C(=O)O [VIP3] (H-HSDAVFTDNSTRLRKQMAVKKSLNSILN-OH) | – | – | – | – | – | – | >256 µM | >256 µM | >256 µM | >256 µM | –
3 | CC[C@H](C)[C@H](NC(=O)[C@H](CO)NC(=O)[C@H](CC(N)=O)NC(=O)[C@H](CC(C)C)NC(=O)[C@H](Cc1ccc(O)cc1)NC(=O)[C@H](CCCCN)NC(=O)[C@H](CCCCN)NC(=O)[C@@H](NC(=O)[C@H](C)NC(=O)[C@H](CCSC)NC(=O)[C@H](CCC(N)=O)NC(=O)[C@H](CCCCN)NC(=O)[C@H](CCCNC(=N)N)NC(=O)[C@H](CC(C)C)NC(=O)[C@H](CCCNC(=N)N)NC(=O)[C@@H](NC(=O)[C@H](Cc1ccc(O)cc1)NC(=O)[C@H](CC(N)=O)NC(=O)[C@H](CCCCN)NC(=O)[C@@H](NC(=O)[C@H](Cc1ccccc1)NC(=O)[C@@H](NC(=O)[C@H](C)NC(=O)[C@H](CCCCN)NC(=O)[C@H](CO)NC(=O)[C@@H](N)Cc1c[nH]cn1)C(C)C)[C@@H](C)O)[C@@H](C)O)C(C)C)C(=O)N[C@@H](CC(C)C)C(=O)N[C@H](C(=O)O)[C@@H](C)O [VIP5] (H-HSKAVFTKNYTRLRKQMAVKKYLNSILT-OH) | – | >256 µM | – | >256 µM | >256 µM | >256 µM | – | – | – | – | –
4 | CC[C@H](C)[C@H](NC(=O)[C@H](CO)NC(=O)[C@H](CC(N)=O)NC(=O)[C@H](CC(C)C)NC(=O)[C@H](Cc1ccc(O)cc1)NC(=O)[C@H](CCCCN)NC(=O)[C@H](CCCCN)NC(=O)[C@@H](NC(=O)[C@H](C)NC(=O)[C@H](CCSC)NC(=O)[C@H](CCC(N)=O)NC(=O)[C@H](CCCCN)NC(=O)[C@H](CCCNC(=N)N)NC(=O)[C@H](CC(C)C)NC(=O)[C@H](CCCNC(=N)N)NC(=O)[C@@H](NC(=O)[C@H](Cc1ccc(O)cc1)NC(=O)[C@H](CC(N)=O)NC(=O)[C@H](CCCCN)NC(=O)[C@@H](NC(=O)[C@H](Cc1ccccc1)NC(=O)[C@@H](NC(=O)[C@H](C)NC(=O)[C@H](CCCCN)NC(=O)[C@H](CO)NC(=O)[C@@H](N)Cc1c[nH]cn1)C(C)C)[C@@H](C)O)[C@@H](C)O)C(C)C)C(=O)N[C@@H](CC(C)C)C(=O)N[C@@H](CC(N)=O)C(=O)O [VIP2] (H-HSKAVFTKNYTRLRKQMAVKKYLNSILN-OH) | – | 16 µM | – | 64 µM | 32 µM | 128 µM | – | – | – | – | no cytotoxicity
5 | CC[C@H](C)[C@H](NC(=O)[C@H](CO)NC(=O)[C@H](CC(N)=O)NC(=O)[C@H](CC(C)C)NC(=O)[C@H](Cc1ccc(O)cc1)NC(=O)[C@H](CCCCN)NC(=O)[C@H](CCCCN)NC(=O)[C@@H](NC(=O)[C@H](C)NC(=O)[C@H](CCSC)NC(=O)[C@H](CCC(N)=O)NC(=O)[C@H](CCCCN)NC(=O)[C@H](CCCNC(=N)N)NC(=O)[C@H](CC(C)C)NC(=O)[C@H](CCCNC(=N)N)NC(=O)[C@@H](NC(=O)[C@H](Cc1ccc(O)cc1)NC(=O)[C@H](CC(N)=O)NC(=O)[C@H](CC(=O)O)NC(=O)[C@@H](NC(=O)[C@H](Cc1ccccc1)NC(=O)[C@@H](NC(=O)[C@H](C)NC(=O)[C@H](CC(=O)O)NC(=O)[C@H](CO)NC(=O)[C@@H](N)Cc1c[nH]cn1)C(C)C)[C@@H](C)O)[C@@H](C)O)C(C)C)C(=O)N[C@@H](CC(C)C)C(=O)N[C@H](C(=O)O)[C@@H](C)O [VIP4] (H-HSDAVFTDNYTRLRKQMAVKKYLNSILT-OH) | – | >256 µM | – | >256 µM | >256 µM | >256 µM | – | – | – | – | –

The next lines start with results.

Row | MIC (minimal inhibitory concentration) (E. coli ATCC 25922; ATCC 25922, 2 h) | MIC (minimum inhibitory concentration) (E. coli ATCC 25922; ATCC 25922, 2 h) | MIC (minimal inhibitory concentration) (S. aureus ATCC 25923; ATCC 25923, 2 h) | MIC (minimum inhibitory concentration) (S. aureus ATCC 25923; ATCC 25923, 2 h) | Structure (SMILES) | MBC (minimum bactericidal concentration) (E. coli ATCC 25922; ATCC 25922, 2 h) | MBC (minimum bactericidal concentration) (S. aureus ATCC 25923; ATCC 25923, 2 h) | MBC (minimum bactericidal concentration) (E. coli ATCC 25922; [1]) | MIC (minimum inhibitory concentration) (E. coli ATCC 25922; [1]) | MBC (minimum bactericidal concentration) (S. aureus ATCC 25923; [2]) | MIC (minimum inhibitory concentration) (S. aureus ATCC 25923; [2]) | Cytotoxicity (in words) (3T3-L1 cells)
6 | – | 8 µM | – | 16 µM | CC[C@H](C)[C@H](NC(=O)[C@H](C)NC(=O)[C@H](C)NC(=O)[C@H](CC(C)C)NC(=O)[C@H](Cc1ccc(O)cc1)NC(=O)[C@H](CCCNC(=N)N)NC(=O)[C@H](CCCNC(=N)N)NC(=O)[C@@H](NC(=O)[C@H](C)NC(=O)[C@H](CC(C)C)NC(=O)[C@H](CCC(N)=O)NC(=O)[C@H](CCCNC(=N)N)NC(=O)[C@H](CCCNC(=N)N)NC(=O)[C@H](CC(C)C)NC(=O)[C@H](CCCNC(=N)N)NC(=O)[C@@H](NC(=O)[C@H](Cc1ccc(O)cc1)NC(=O)[C@H](CC(N)=O)NC(=O)[C@H](C)NC(=O)[C@@H](NC(=O)[C@H](Cc1ccccc1)NC(=O)[C@@H](NC(=O)[C@H](C)NC(=O)[C@H](CC(=O)O)NC(=O)[C@H](CO)NC(=O)[C@@H](N)Cc1c[nH]cn1)C(C)C)[C@@H](C)O)[C@@H](C)O)C(C)C)C(=O)N[C@@H](CC(C)C)C(=O)NCC(=O)N[C@@H](CCCNC(=N)N)C(=O)N[C@@H](CCCNC(=N)N)C(=O)O [VIP7] (H-HSDAVFTANYTRLRRQLAVRRYLAAILGRR-OH) | 8 µM | 32 µM | – | – | – | – | –
7 | – | >256 µM | – | >256 µM | CC[C@H](C)[C@H](NC(=O)[C@H](CO)NC(=O)[C@H](CC(N)=O)NC(=O)[C@H](CC(C)C)NC(=O)[C@H](CO)NC(=O)[C@H](CCCCN)NC(=O)[C@H](CCCCN)NC(=O)[C@@H](NC(=O)[C@H](C)NC(=O)[C@H](CCSC)NC(=O)[C@H](CCC(N)=O)NC(=O)[C@H](CCCCN)NC(=O)[C@H](CCCNC(=N)N)NC(=O)[C@H](CC(C)C)NC(=O)[C@H](CCCNC(=N)N)NC(=O)[C@@H](NC(=O)[C@H](CO)NC(=O)[C@H](CC(N)=O)NC(=O)[C@H](CC(=O)O)NC(=O)[C@@H](NC(=O)[C@H](Cc1ccccc1)NC(=O)[C@@H](NC(=O)[C@H](C)NC(=O)[C@H](CC(=O)O)NC(=O)[C@H](CO)NC(=O)[C@@H](N)Cc1c[nH]cn1)C(C)C)[C@@H](C)O)[C@@H](C)O)C(C)C)C(=O)N[C@@H](CC(C)C)C(=O)N[C@H](C(=O)O)[C@@H](C)O [VIP6] (H-HSDAVFTDNSTRLRKQMAVKKSLNSILT-OH) | >256 µM | >256 µM | – | – | – | – | –
